In ChEMBL document CHEMBL1129257, “Potent inhibition of tumor necrosis factor-alpha production by tetrafluorothalidomide and tetrafluorophthalimides” (J Med Chem, 1996) one finds response, % of control, inhibition and IC50 data, which are given here for twelve compounds.

Assay type in all cases: functional
In experiment [1] the target is T1, Tumor necrosis factor (Homo sapiens, UniProt P01375). The experiment is described as follows: Inhibition of TNF-alpha production from human monocytes upon stimulation with bacterial lipopolysaccharide (LPS) at a concentration of 215 nM. The conditions noted are these: values are per cent of control.
T1 sequence (P01375 whole entry): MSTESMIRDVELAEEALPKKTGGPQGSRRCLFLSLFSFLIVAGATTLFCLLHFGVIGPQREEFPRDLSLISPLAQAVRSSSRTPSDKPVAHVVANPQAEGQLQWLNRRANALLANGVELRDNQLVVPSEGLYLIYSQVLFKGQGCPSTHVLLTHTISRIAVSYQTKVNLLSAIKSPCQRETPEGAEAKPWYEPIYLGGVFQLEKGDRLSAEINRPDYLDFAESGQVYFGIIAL
Experiment [2] deals with T1, Tumor necrosis factor. Briefly: Inhibition of TNF-alpha production from human monocytes upon stimulation with bacterial lipopolysaccharide (LPS) at a concentration of 100 nM. The note with it: values are per cent of control.
For experiment [3], the target named is T1, Tumor necrosis factor. Briefly: Inhibition of TNF-alpha production from human monocytes upon stimulation with bacterial lipopolysaccharide (LPS) at a concentration of 464 nM. The conditions noted are these: values are per cent of control.
Experiment [4] deals with T1, Tumor necrosis factor. Briefly: Inhibition of TNF-alpha production from human monocytes upon stimulation with bacterial lipopolysaccharide (LPS) at a concentration of 1 uM. The note with it: values are per cent of control.
Experiment [5] has as its target T1, Tumor necrosis factor. Briefly: Inhibition of TNF-alpha production from human monocytes upon stimulation with bacterial lipopolysaccharide (LPS) at a concentration of 200 uM.
In experiment [6] the target is T1, Tumor necrosis factor. The experiment is described as follows: Inhibitory activity against TNF-alpha production.
Experiment [7] deals with T1, Tumor necrosis factor. Briefly: Inhibition of TNF-alpha production from human monocytes upon stimulation with bacterial lipopolysaccharide (LPS) at a concentration of 464 uM.
Experiment [8] has as its target T1, Tumor necrosis factor. Briefly: Inhibition of TNF-alpha production from human monocytes upon stimulation with bacterial lipopolysaccharide (LPS) at a concentration of 215 uM,.
The target in experiment [9] is T1, Tumor necrosis factor. The experiment is described as follows: Inhibition of TNF-alpha production from human monocytes upon stimulation with bacterial lipopolysaccharide (LPS) at a concentration of 100 uM,.
The target in experiment [10] is T1, Tumor necrosis factor. The experiment is described as follows: Inhibition of TNF-alpha production from human monocytes upon stimulation with bacterial lipopolysaccharide (LPS) at a concentration of 464 nM,.
The target in experiment [11] is T1, Tumor necrosis factor. The experiment is described as follows: Inhibition of TNF-alpha production from human monocytes upon stimulation with bacterial lipopolysaccharide (LPS) at a concentration of 215 nM,.
The target in experiment [12] is T1, Tumor necrosis factor. Briefly: Inhibition of TNF-alpha production from human monocytes upon stimulation with bacterial lipopolysaccharide (LPS) at a concentration of 100 nM,.

Consider `CC(C)(C)c1cccc(C(C)(C)C)c1N1C(=O)c2c(F)c(F)c(F)c(F)c2C1=O`, for which the response, % of control at Tumor necrosis factor [1] was 30%; at Tumor necrosis factor [2] it was 40%; on Tumor necrosis factor [3], 15%; on Tumor necrosis factor [4] it was -2%.
`O=C1CCC(N2C(=O)c3ccccc3C2=O)C(=O)N1` (stereo unspecified) displayed an inhibition at Tumor necrosis factor [5] of 64%.
For the compound `CC(C)c1cccc(C(C)C)c1N1C(=O)c2c(F)c(F)c(F)c(F)c2C1=O`, the response, % of control is 10% at Tumor necrosis factor [1], 40% on Tumor necrosis factor [2], 2% at Tumor necrosis factor [3] and 5% at Tumor necrosis factor [4].
The matching figures for `O=C1CCC(N2C(=O)c3c(Br)c(Br)c(Br)c(Br)c3C2=O)C(=O)N1` (racemic): 60%, 70%, 62% and 53%.
`O=C1CCC(N2C(=O)c3c(F)c(F)c(F)c(F)c3C2=O)C(=O)N1` (racemic) had an IC50 against Tumor necrosis factor [6] of 400 nM. Besides, the response, % of control on Tumor necrosis factor [1] was 70%; at Tumor necrosis factor [2] it was 85%; on Tumor necrosis factor [3] it was 40%; on Tumor necrosis factor [4], 4%.
Regarding `O=C1c2c(F)c(F)c(F)c(F)c2C(=O)N1c1ccccc1`, the response, % of control at Tumor necrosis factor [1] was 65%; at Tumor necrosis factor [2] it was 65%; on Tumor necrosis factor [3], 70%; at Tumor necrosis factor [4], 65%.
`COC(=O)CC(c1ccc(OC)c(OC)c1)N1C(=O)c2c(F)c(F)c(F)c(F)c2C1=O` (racemic): the inhibition worked out at 10% against Tumor necrosis factor [7], 30% against Tumor necrosis factor [8] and 55% at Tumor necrosis factor [9]. Moreover, on Tumor necrosis factor [4], the response, % of control is -5%.
In the case of `O=C1CCC(N2C(=O)c3c(Cl)c(Cl)c(Cl)c(Cl)c3C2=O)C(=O)N1` (racemic), the response, % of control on Tumor necrosis factor [1] amounted to 90%; on Tumor necrosis factor [2], 80%; on Tumor necrosis factor [3] it was 80%; at Tumor necrosis factor [4] it was 75%.
As for `CCc1cccc(CC)c1N1C(=O)c2c(F)c(F)c(F)c(F)c2C1=O`, the inhibition worked out at 2% at Tumor necrosis factor [10], 20% on Tumor necrosis factor [11] and 43% on Tumor necrosis factor [12]. The response, % of control at Tumor necrosis factor [4] is -1%.
As to `CC(C)c1cccc(C(C)C)c1N1C(=O)c2c(Cl)c(Cl)c(Cl)c(Cl)c2C1=O`, the response, % of control at Tumor necrosis factor [1] stood at 80%; at Tumor necrosis factor [2], 75%; at Tumor necrosis factor [3], 70%; on Tumor necrosis factor [4] it was 70%.
On to `CC(C)c1cccc(C(C)C)c1N1C(=O)c2c(Br)c(Br)c(Br)c(Br)c2C1=O`, for which the response, % of control is 70% on Tumor necrosis factor [1], 80% on Tumor necrosis factor [2], 53% on Tumor necrosis factor [3] and 62% on Tumor necrosis factor [4].
With `Cc1cccc(C)c1N1C(=O)c2c(F)c(F)c(F)c(F)c2C1=O`, the response, % of control at Tumor necrosis factor [1] came out at 50%; at Tumor necrosis factor [2] it was 62%; on Tumor necrosis factor [3] it was 30%; on Tumor necrosis factor [4], 3%.

As a reminder, the inhibition is the change of the read-out against control, counted positive when it falls. Read a high inhibition as a response far below the control. As a reminder, the IC50 is the midpoint of a concentration-inhibition curve. A higher IC50 goes with a need for much substance.
